Experimental data: patent US10973758B2 (O.D. Ocular Discovery Ltd., priority 2013, dated 2021)
Where two headings read alike, the source gives them in different places.

How the values were obtained:
thrombus formation = conditions: arterial circulation of the brain, rabbit model; cited from earlier work
cAMP levels = conditions: in-vitro, in comparison to a control; cited from earlier work
nitric oxide levels = conditions: cited from earlier work
[1] = Dissolution in pH-adjusted aqueous solution; assay type: physicochemical; conditions: pH adjusted to ˜6.6 (6.5-6.7)
Excerpt: The natural pH of tear fluid is 7.4; however, discomfort for the user will not be felt as long as the pH of the administered medication stays in the range of 6.6-7.8 (Sampath Kumar et al., “Recent Challenges and Advances in Ophthalmic Drug Delivery System,” in The Pharma Innovation, Vol. 1, No. 4 (2012)). Others administer eye drops at a pH of 5.5 and find this pH to be optimal.

[2] = cited from earlier work
[3] = cited from earlier work; for peak plasma level: oral
[4] = test system: ocular inflammatory disease; conditions: cited from earlier work

OCCN(CCO)c1nc(N2CCCCC2)c2nc(N(CCO)CCO)nc(N3CCCCC3)c2n1 [dipyridamole, 2,6-bis (diethanolamino)-4,8-dipiperidinopyrimido [5,4-d] pyrimidine]
effect on thrombus formation (thrombus formation): reduce thrombus formation
effect on cAMP levels (cAMP levels): negligible effect
effect on nitric oxide levels (nitric oxide levels): increases nitric oxide levels
dissolution in aqueous solution [1]: fully dissolves
solubility in methanol ([2]; methanol): very soluble
solubility in water ([2]; water): practically insoluble
half-life, third phase of tri-exponential decline ([3]; IV or oral 20-50 mg, followed up to 60 hours): 10 to 12 h
peak plasma level ([3]; after a 25 mg dose): about 0.5 g/mL
peak plasma level ([3]; after a 75 mg dose): 1.6 µg/mL
distribution half-life ([3]; humans, after oral administration): about 3 hours
time to peak plasma levels ([3]; humans, following oral administration): 1 to 3 h
distribution half-life ([3]; humans, intravenous (IV) administration): about 25 minutes
effect in ocular inflammatory disease ([4]; systemically administered): significant beneficial effect
effect in ocular inflammatory disease ([4]; topically administered (in liquid formulation)): ineffective
